For 5 compounds, Ki results are on record in ChEMBL document CHEMBL1134523, “Isomerization of (Z,Z) to (E,E)1-bromo-2,5-bis-(3-hydroxycarbonyl-4-hydroxy)styrylbenzene in strong base: probes for amyloid plaques in the brain” (J Med Chem, 2001).

Chain of Amyloid-beta precursor protein (P05067 whole entry): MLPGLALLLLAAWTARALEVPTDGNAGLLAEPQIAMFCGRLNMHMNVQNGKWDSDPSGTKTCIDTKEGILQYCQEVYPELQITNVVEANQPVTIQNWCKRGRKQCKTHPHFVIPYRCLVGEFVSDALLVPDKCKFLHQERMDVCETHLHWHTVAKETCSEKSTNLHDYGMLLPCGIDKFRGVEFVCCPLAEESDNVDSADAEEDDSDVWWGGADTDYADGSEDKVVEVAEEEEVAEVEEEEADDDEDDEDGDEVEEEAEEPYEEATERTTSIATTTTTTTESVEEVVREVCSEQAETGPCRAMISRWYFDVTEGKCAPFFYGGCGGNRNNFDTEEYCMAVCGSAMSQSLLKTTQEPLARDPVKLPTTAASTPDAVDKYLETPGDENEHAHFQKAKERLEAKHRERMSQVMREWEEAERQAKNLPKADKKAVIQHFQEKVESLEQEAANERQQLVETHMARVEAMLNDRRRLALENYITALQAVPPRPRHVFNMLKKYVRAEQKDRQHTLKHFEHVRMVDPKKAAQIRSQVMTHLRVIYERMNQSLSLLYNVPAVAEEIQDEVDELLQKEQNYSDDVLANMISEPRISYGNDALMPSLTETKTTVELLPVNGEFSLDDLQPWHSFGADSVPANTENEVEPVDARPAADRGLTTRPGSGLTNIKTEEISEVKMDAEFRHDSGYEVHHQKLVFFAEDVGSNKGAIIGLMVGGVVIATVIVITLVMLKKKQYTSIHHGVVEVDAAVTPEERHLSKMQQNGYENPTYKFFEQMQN

This assay concerns the target Amyloid-beta precursor protein (Homo sapiens, UniProt P05067). In words: Inhibitory activity against binding of [125I]IMSB to amyloid beta in brain. Format: tissue-based.
For `O=C(O)c1cc(/C=C\c2ccc(/C=C\c3ccc(O)c(C(=O)O)c3)c(Br)c2)ccc1O`, the Ki (usually the equilibrium dissociation constant of an inhibitor or competing ligand from its target) stood at 0.13 nM.

In the case of `O=C(O)c1cc(/C=C\c2ccc(/C=C/c3ccc(O)c(C(=O)O)c3)c(Br)c2)ccc1O`, the Ki is 0.27 nM.

Turning to `O=C(O)c1cc(/C=C/c2ccc(/C=C/c3ccc(O)c(C(=O)O)c3)c(Br)c2)ccc1O`, the Ki stood at 0.11 nM.

Take `O=C(O)c1ccccc1O` [SALICYLIC ACID]: the Ki was above 1800 nM.

The compound `O=C(O)c1cc(/C=C\c2ccc(/C=C/c3ccc(O)c(C(=O)O)c3)cc2Br)ccc1O` registered a Ki of 0.19 nM.
